Experiments:
Type in all cases: in vivo, human
males with ASD [1] = assay: ADOS-2 (Autism Diagnostic Observation Schedule, 2nd edition), SAT-1 trial, single 20 mg/kg IV suramin infusion; conditions: for Difference from baseline (mean ± sd) / d (Cohen's d): 45 days after treatment
Description: (§1) Two observational examinations were performed by a clinician at 3 time points: baseline (56±8 days; mean±SEM; before the infusion), 2-days post-infusion, and 6-weeks post-infusion. The two examiner-based metrics were the Autism Diagnostic Observation Schedule, 2nd edition (ADOS-2) with video and audio files recorded on 3 cameras, and the Expressive One Word Picture Vocabulary Testing (EOWPVT). Both of these observational metrics were administered by a trained and certified examiner using approved test materials. Three standardized questionnaires were completed by parents at 3 time points: baseline, 7-days post-infusion, and 6-weeks post-infusion. The three standardized questionnaires completed by parents were the 58-question Aberrant Behavior Checklist (ABC), the 75-item Autism Treatment Evaluation Checklist (ATEC), and the 33-item repetitive behavior questionnaire (RBQ). Parents were asked to complete these three instruments with reference to how their child behaved in the previous 7 days. At the end of the six weeks, we included a 24-question Clinical Global Impression (CGI) questionnaire (FIG. 16). In addition, parents were asked to list the 3 top behaviors or symptoms that they observed to be most changed over the previous 6-weeks. To minimize the misinterpretation of natural day-to-day variations in symptoms, parents were asked to mark a symptom as changed in the 6-week CGI only if it had lasted for at least 1 week.
All children met DSM-5 diagnostic criteria for autism spectrum disorders, and received confirmatory testing by Autism Diagnostic Observation Schedule, 2nd edition (ADOS-2) examination. Inclusion criteria included males, ages 4-17 years, living in the San Diego, Calif. region, with a confirmed diagnosis of ASD.
(§2) For the test dose, 50 mg of suramin hexasodium (Bayer Pharmaceuticals, Inc.) in 5 mL of saline (experimental arm, 5 patients), or 5 mL of saline only (control arm, 5 patients) were given by slow intravenous (IV) push over 3 minutes, followed by a 10 mL flush of saline. One hour after the test dose, vital signs were repeated and a single infusion of either suramin (20 mg/kg, minus the 50 mg test dose, in 50 mL, up to a maximum of 1 gram) or saline (50 mL IV) was given over 30 minutes, followed by a 10 mL flush of saline.
(§3) Behavioral and neurological effects of treatment were assessed primarily by the examiner-based ADOS-2 protocol scores and standardized vocabulary testing (Expressive One Word Picture Vocabulary Test, EOWPVT), with secondary evaluation via parent-based assessments (Aberrant Behavior Checklist (ABC) scores, Autism Treatment Evaluation Checklist (ATEC) scores, Clinical Global Impression of Improvement (CGI) scores, and Repetitive Behavior Questionnaire (RBQ) scores). See General Methods for information related to behavioral test administration. Prior to the study, diagnosis of each of the enrolled participants was confirmed by ADOS-2 comparison scores of ≥7, and non-verbal IQ was tested by Leiter-3 examination. Examiner-based outcomes (ADOS and EOWPVT) were assessed at 2-days and 6-weeks after the infusion. Parent-based outcomes (ABC, ATEC, CGI, and RBQ) were assessed at 7-days and 6-weeks after the infusion. To minimize the effects of natural behavioral variability, the parents were instructed to mark a behavior as changed only if it was persistently changed for at least 1 week.
Each child was used as their own control to examine before and after treatment effects from Example 1 in a paired t-test design for the analysis of the ADOS, EOWPVT, ABC, ATEC, RBQ (FIGS. 4-11 show individual analyses), and blood and urine safety data (FIGS. 2 and 3 show individual analyses). Paired, non-parametric analysis was by Wilcoxon signed-rank sum test. Categorical data, such as the presence or absence of adverse events or historical symptoms was analyzed by Fisher's exact test. […]

males with ASD [2] = assay: Autism Treatment Evaluation Checklist (ATEC), parent questionnaire, SAT-1 trial
Description: as §1, §2, §3
Each child was used as their own control to examine before and after treatment effects from Example 1 in a paired t-test design for the analysis of the ADOS, EOWPVT, ABC, ATEC, RBQ (FIGS. 4-11 show individual analyses), and blood and urine safety data (FIGS. 2 and 3 show individual analyses). Paired, non-parametric analysis was by Wilcoxon signed-rank sum test. Categorical data, such as the presence or absence of adverse events or historical symptoms was analyzed by Fisher's exact test. Two-way ANOVA (treatment×time), with Sidak post hoc correction, was used to analyze the 6-week summaries captured by the ADOS, CGI, and additional blood and urine safety analysis. Cohen's d—calculated as the mean difference of the paired, within-subject scores before and after treatment, divided by the standard deviation of the differences—was used as an estimate of effect size.

[3] = Toxicity and safety monitoring, adverse events graded by CTCAE v4.03, SAT-1 trial
Description: Immediately before the infusion, height and weight were recorded, vital signs and capillary oxygen saturation (pulse oximetry) measured, physical and neurological examinations were conducted, and urine and blood for safety monitoring, pharmacology, and metabolomics was collected.
as §2
Suramin pharmacokinetics was assessed by serum isolation at the 4 time points immediately before and after the infusion. […] Unexpected and adverse events were recorded as they occurred and graded in severity according to the National Cancer Institute Common Terminology Criteria for Adverse Events v4.03 (CTCAE) scale. Additional pharmacovigilence monitoring included daily scripted phone calls in the first week, then 4 weekly calls until the exit examinations at 6 weeks.
Paired, non-parametric analysis was by Wilcoxon signed-rank sum test. Categorical data, such as the presence or absence of adverse events or historical symptoms was analyzed by Fisher's exact test. Two-way ANOVA (treatment×time), with Sidak post hoc correction, was used to analyze the 6-week summaries captured by the ADOS, CGI, and additional blood and urine safety analysis. Cohen's d—calculated as the mean difference of the paired, within-subject scores before and after treatment, divided by the standard deviation of the differences—was used as an estimate of effect size.

[4] = ATEC Language, 7 days after treatment
[5] = ATEC Language, 45 days after treatment
[6] = ATEC Sociability, 7 days after treatment
[7] = ATEC Total, 7 days after treatment

## Cc1ccc(C(=O)Nc2ccc(S(=O)(=O)O)c3cc(S(=O)(=O)O)cc(S(=O)(=O)O)c23)cc1NC(=O)c1cccc(NC(=O)Nc2cccc(C(=O)Nc3cc(C(=O)Nc4ccc(S(=O)(=O)O)c5cc(S(=O)(=O)O)cc(S(=O)(=O)O)c45)ccc3C)c2)c1 [Suramin, suramin]
Males with ASD [1]; 6-weeks after suramin (8.6±0.4 at baseline)
  mean ADOS comparison score: 7.0±0.3
Males with ASD [1]; 6-weeks, suramin treatment group, n=5
  ADOS-2 comparison scores improved by an average of (mean±SD): −1.6±0.55 points
Males with ASD [1]; 2 days after suramin (FIG. 10A)
  2-day ADOS scores: no change
Males with ASD [1]; ADOS-2 Comparison
  Difference from baseline (mean ± sd): −1.6 ± 0.55
  d (Cohen's d): 2.9
Males with ASD [1]; ADOS-2 Raw
  Difference from baseline (mean ± sd): −4.6 ± 1.9
  d (Cohen's d): 2.4
Males with ASD [1]; ADOS-2 Restr/Rep (restricted or repetitive behaviors)
  Difference from baseline (mean ± sd): −1.4 ± 0.89
Males with ASD [1]; ADOS-2 Restr/Rep
  d (Cohen's d): 1.6
Males with ASD [1]; ADOS-2 Social
  Difference from baseline (mean ± sd): −3.2 ± 1.9
  d (Cohen's d): 1.7
Males with ASD [2]; [4]
  Difference from baseline (mean ± sd): −2.2 ± 1.5
  d (Cohen's d): 1.4
Males with ASD [2]; [5]
  Difference from baseline (mean ± sd): −2.0 ± 1.4
  d (Cohen's d): 1.4
Males with ASD [2]; [6]
  Difference from baseline (mean ± sd): −3.6 ± 2.6
  d (Cohen's d): 1.4
Males with ASD [2]; [7]
  Difference from baseline (mean ± sd): −10 ± 7.7
  d (Cohen's d): 1.3
[3]; Asymptomatic rash
  Adverse or Unanticipated Events, Suramin (N = 5): 5
  CTCAE Grade: 1
[3]; Emesis x 1
  Adverse or Unanticipated Events, Suramin (N = 5): 1^4
  CTCAE Grade: 1
[3]; Enuresis
  Adverse or Unanticipated Events, Suramin (N = 5): 1^9
  CTCAE Grade: 1
[3]; Headache
  Adverse or Unanticipated Events, Suramin (N = 5): 1
  CTCAE Grade: 1
[3]; Hyperactivity
  Adverse or Unanticipated Events, Suramin (N = 5): 2^6
  CTCAE Grade: 1
[3]; Hypoglycemia
  Adverse or Unanticipated Events, Suramin (N = 5): 1
  CTCAE Grade: 2
[3]; Leukocytosis
  Adverse or Unanticipated Events, Suramin (N = 5): 0
[3]; Peripheral neuropathy
  Adverse or Unanticipated Events, Suramin (N = 5): 0
[3]; Total
  Adverse or Unanticipated Events, Suramin (N = 5): 13
[3]; Total, excluding rash
  Adverse or Unanticipated Events, Suramin (N = 5): 8
[3]; Uncomplicated URI
  Adverse or Unanticipated Events, Suramin (N = 5): 2
  CTCAE Grade: 1
[3]; extensive monitoring, single 20 mg/kg IV
  serious toxicities (CTCAE grades 3-5): no serious toxicities
[3]; five children who received suramin
  extent of morbilliform rash: 1%-20%
[3]; in vivo
  time of rash peak after the infusion: 1 days
  time to spontaneous disappearance of rash: 2 to 4 days
[3]; suramin vs placebo (FIGS. 2 and 3)
  free cortisol, hemoglobin, white blood cell count (WBC), platelets, liver transaminases, creatinine, and urine protein: showed no differences
